“And” between values parts separate entries of the source, which are not always exact repeats. Equal values may be shown once. Read-outs that look alike come from different tables or passages of the source.
Tests used:
[1] = target: T1, TEM-1 Y105G (Escherichia coli, UniProt P62593, Y103G); experiment: In vitro inhibition of nitrocefin hydrolysis and simulation of inhibition curves, TEM-1 Y105G; assay type: biochemical
[2] = test system: E. coli KA797 cells carrying pUK21 with TEM-1 Y105G; assay type: cell-based, Escherichia coli; conditions: in combination with 100 μg/ml carbenicillin
[3] = test system: E. coli KA797 cells carrying BlaC position 105 library; assay type: cell-based, Escherichia coli; conditions: for Fi AVG (average fitness): average of replicates
[4] = target: T2, BlaC WT (Mycobacterium tuberculosis, UniProt P9WKD3); assay type: biochemical
T2 construct: correspond to residue numbers 41-307 of BlaC (Uniprot entry P9WKD3-1); His tag with TEV cleavage site (N); made in house; host or cells: E. coli BL21 (DE3) pLysS
T2 sequence (P9WKD3 41-307): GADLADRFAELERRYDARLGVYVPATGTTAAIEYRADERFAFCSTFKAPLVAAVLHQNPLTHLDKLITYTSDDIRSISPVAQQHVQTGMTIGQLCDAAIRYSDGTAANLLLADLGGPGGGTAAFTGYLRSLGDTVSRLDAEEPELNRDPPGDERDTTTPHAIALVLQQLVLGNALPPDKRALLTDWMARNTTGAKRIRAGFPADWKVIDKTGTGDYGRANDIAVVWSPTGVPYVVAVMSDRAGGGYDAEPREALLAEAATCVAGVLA

[5] = test system: E. coli KA797 cells carrying pUK21 with CTX-M-14 Y105G; assay type: cell-based, Escherichia coli; conditions: in combination with 100 μg/ml carbenicillin
[6] = test system: E. coli KA797 cells carrying pUK21 with CTX-M-14 Y105R; assay type: cell-based, Escherichia coli; conditions: in combination with 100 μg/ml carbenicillin
[7] = test system: E. coli KA797 cells carrying pUK21 with TEM-1 Y105R; assay type: cell-based, Escherichia coli; conditions: in combination with 100 μg/ml carbenicillin
[8] = test system: E. coli KA797 cells carrying pUK21 with BlaC I105G; assay type: cell-based, Escherichia coli; conditions: in combination with 100 μg/ml carbenicillin
[9] = target: T3, CTX-M-14 Y105G (Escherichia coli, UniProt Q9L5C7, Y108G); experiment: biochemical
T3 construct: 29 to 291 of CTX-M-14 (Q9L5C7); His tag with TEV cleavage site (N); made in house; host or cells: E. coli BL21 (DE3) pLysS

[10] = test system: E. coli KA797 cells carrying pUK21 with TEM-1 WT (Sec); experiment: microbe, parasite or virus in culture; assay type: cell-based; conditions: in combination with 100 μg/ml carbenicillin
[11] = target: T4, CTX-M-14 WT (Escherichia coli, UniProt Q9L5C7); experiment: biochemical
T4 construct: 29 to 291 of CTX-M-14 (Q9L5C7); His tag with TEV cleavage site (N); made in house; host or cells: E. coli BL21 (DE3) pLysS

[12] = test system: E. coli KA797 cells carrying pUK21 with BlaC I105R; assay type: cell-based, Escherichia coli; conditions: in combination with 100 μg/ml carbenicillin
[13] = test system: E. coli KA797 cells carrying pUK21 with NmcA (pelB/Sec); experiment: microbe, parasite or virus in culture; assay type: cell-based; conditions: in combination with 25 μg/ml carbenicillin
[14] = test system: E. coli KA797 cells carrying pUK21 with KPC-2 (Tat); experiment: microbe, parasite or virus in culture; assay type: cell-based; conditions: in combination with 100 μg/ml carbenicillin
[15] = test system: E. coli KA797 cells carrying pUK21 with BlaC WT (Tat); experiment: microbe, parasite or virus in culture; assay type: cell-based; conditions: in combination with 100 μg/ml carbenicillin
[16] = test system: E. coli KA797 cells carrying pUK21 with CTX-M-14 WT (Tat); experiment: microbe, parasite or virus in culture; assay type: cell-based; conditions: in combination with 100 μg/ml carbenicillin
[17] = target: T5, TEM-1 WT (Escherichia coli, UniProt P62593); assay type: biochemical; set-up: 24 to 286 of TEM-1 (P62593); His tag with TEV cleavage site (N); made in house; host or cells: E. coli BL21 (DE3) pLysS
[18] = target: T2, BlaC WT; conditions: pH 6.4, cited from earlier work
[19] = target: T5, TEM-1 WT; conditions: phosphate buffer pH 6.4, 25 °C
[20] = target: T1, TEM-1 Y105G; experiment: Steady-state kinetics of substrate hydrolysis, TEM-1 Y105G; assay type: biochemical; conditions: phosphate buffer pH 6.4, 25 °C
[21] = target: T3, CTX-M-14 Y105G; assay type: biochemical
[22] = avibactam, simulation Eq 3/9, CTX-M-14 Y105G
[23] = avibactam, simulation Eq 3/9, CTX-M-14 WT
[24] = avibactam, simulation Eq 3/9, TEM-1 WT
[25] = nitrocefin parameter (Eq 7) in simulation of avibactam inhibition curves
[26] = nitrocefin parameter (Eq 7) in simulation of clavulanic acid inhibition curves
[27] = nitrocefin parameter (Eq 7) in simulation of avibactam inhibition curves, CTX-M-14 Y105G

With `NC(=O)[C@@H]1CC[C@@H]2CN1C(=O)N2OS(=O)(=O)O` [avibactam] the k2 ([1]; avibactam, simulation Eq 3/9) was 5 10^−2 s^−1, the k-2 ([1]; avibactam, simulation Eq 3/9) was 0.75 10^−3 s^−1 and the MIC of inhibitor [2] was 16 µg/mL. The “Fi AVG (average fitness)” value ([3]; AA 105 Ala (BlaC I105A), relative to WT Ile) was 0.716, the “Significance of average fitness” value ([3]; AA 105 Arg (BlaC I105R)) was “+” and the “Fi AVG (average fitness)” value ([3]; AA 105 Arg (BlaC I105R), relative to WT Ile) was 2.021. For the same compound, the “Fi AVG (average fitness)” value ([3]; AA 105 Asn (BlaC I105N), relative to WT Ile) was -0.462, the “Fi AVG (average fitness)” value ([3]; AA 105 Asp (BlaC I105D), relative to WT Ile) was 0.306 and the “Fi AVG (average fitness)” value ([3]; AA 105 Cys (BlaC I105C), relative to WT Ile) was 0.512. The “Significance of average fitness” value ([3]; AA 105 Gln (BlaC I105Q)) was “+”, the “Fi AVG (average fitness)” value ([3]; AA 105 Gln (BlaC I105Q), relative to WT Ile) was 1.438 and the “Fi AVG (average fitness)” value ([3]; AA 105 Glu (BlaC I105E), relative to WT Ile) was 0.205. The “Significance of average fitness” value ([3]; AA 105 Gly (BlaC I105G)) was “+”, the “Fi AVG (average fitness)” value ([3]; AA 105 Gly (BlaC I105G), relative to WT Ile) was 2.428 and the “Fi AVG (average fitness)” value ([3]; AA 105 His (BlaC I105H), relative to WT Ile) was 0.810. For the same compound, the “Fi AVG (average fitness)” value ([3]; AA 105 Ile (BlaC WT, reference)) was 0.000, the “Significance of average fitness” value ([3]; AA 105 Leu (BlaC I105L)) was “+” and the “Fi AVG (average fitness)” value ([3]; AA 105 Leu (BlaC I105L), relative to WT Ile) was 1.665. For the same compound, the “Significance of average fitness” value ([3]; AA 105 Lys (BlaC I105K)) was “+”, the “Fi AVG (average fitness)” value ([3]; AA 105 Lys (BlaC I105K), relative to WT Ile) was 0.933 and the “Fi AVG (average fitness)” value ([3]; AA 105 Met (BlaC I105M), relative to WT Ile) was 0.542. The “Significance of average fitness” value ([3]; AA 105 Phe (BlaC I105F)) was “+”, the “Fi AVG (average fitness)” value ([3]; AA 105 Phe (BlaC I105F), relative to WT Ile) was 2.659 and the “Significance of average fitness” value ([3]; AA 105 Pro (BlaC I105P)) was “-”. The “Fi AVG (average fitness)” value ([3]; AA 105 Pro (BlaC I105P), relative to WT Ile) was -1.222, the “Significance of average fitness” value ([3]; AA 105 Ser (BlaC I105S)) was “+” and the “Fi AVG (average fitness)” value ([3]; AA 105 Ser (BlaC I105S), relative to WT Ile) was 1.393. The “Significance of average fitness” value ([3]; AA 105 Thr (BlaC I105T)) was “+”, the “Fi AVG (average fitness)” value ([3]; AA 105 Thr (BlaC I105T), relative to WT Ile) was 1.333 and the “Significance of average fitness” value ([3]; AA 105 Trp (BlaC I105W)) was “+”. For the same compound, the “Fi AVG (average fitness)” value ([3]; AA 105 Trp (BlaC I105W), relative to WT Ile) was 2.468, the “Significance of average fitness” value ([3]; AA 105 Tyr (BlaC I105Y)) was “+” and the “Fi AVG (average fitness)” value ([3]; AA 105 Tyr (BlaC I105Y), relative to WT Ile) was 3.416. For the same compound, the “Fi AVG (average fitness)” value ([3]; AA 105 Val (BlaC I105V), relative to WT Ile) was -0.187, the “WT abs Fi 1” value ([3]; absolute fitness of BlaC WT (Ile 105), replicate 1) was -1.354 and the “WT abs Fi 2” value ([3]; absolute fitness of BlaC WT (Ile 105), replicate 2) was -1.584. For the same compound, the “WT abs Fi 3” value ([3]; absolute fitness of BlaC WT (Ile 105), replicate 3) was -0.942, the k2 [4] was 6.5 and 6.5 10^−2 s^−1 and the k-2 [4] was 0.1 and 0.1 10^−3 s^−1. For the same compound, the MIC of inhibitor [5] was 2 µg/mL, the MIC of inhibitor [6] was 1 µg/mL and the MIC of inhibitor [7] was 4 µg/mL. For the same compound, the MIC of inhibitor [8] was 32 µg/mL, the Ki [9] was 50 µM and the k2 [9, 22] was 4.6 10^−2 s^−1. The k-2 [9, 22] was 0.25 10^−3 s^−1, the MIC of inhibitor [10] was 1 µg/mL and the Ki [11] was 0.47 µM. For the same compound, the k2 [11, 23] was 6.6 10^−2 s^−1, the k-2 [11, 23] was 0.3 10^−3 s^−1 and the k1 ([11]; avibactam, simulation Eq 9, CTX-M-14 WT) was 1e+06 M⁻¹ s⁻¹. It also gave an MIC of inhibitor [12] of 64 µg/mL, an MIC of inhibitor [13] of 0.5 µg/mL and an MIC of inhibitor [14] of 0.5 µg/mL. For the same compound, the MIC of inhibitor [15] was 16 µg/mL, the MIC of inhibitor [16] was 0.5 µg/mL and the k2 [17, 24] was 5.7 10^−2 s^−1. The k-2 [17, 24] was 0.2 10^−3 s^−1 and the k1 ([17]; avibactam, simulation Eq 9, TEM-1 WT) was 1e+06 M⁻¹ s⁻¹.
Compound `O=C(Cc1cccs1)N[C@@H]1C(=O)N2C(C(=O)O)=C(/C=C/c3ccc([N+](=O)[O-])cc3[N+](=O)[O-])CS[C@H]12` [nitrocefin] has a ka [1, 25] of 1e+07 M⁻¹ s⁻¹, a kc [1, 25] of 95 s⁻¹ and a ka [1, 26] of 1e+07 M⁻¹ s⁻¹. For the same compound, the kc [1, 26] was 154 s⁻¹, the kcat [18] was 86 ± 2 s⁻¹ and the Km ([18]; read-out: KM^app) was 131 ± 2 µM. For the same compound, the ka [4] was 1.05e+06 M⁻¹ s⁻¹, the kc [4] was 82.5 s⁻¹ and 56 s⁻¹ and the kcat [19] was 933 ± 33 s⁻¹. The kcat [20] was 453 ± 80 s⁻¹, the Kd [9] was 760 µM and the ka [9, 27] was 5e+07 M⁻¹ s⁻¹. For the same compound, the kc [9, 27] was 460 s⁻¹, the Kd [11] was 50 µM and the kc [11] was 545 s⁻¹. The ka [17] was 4.5e+07 M⁻¹ s⁻¹, the kc [17] was 830 s⁻¹ and 1040 s⁻¹ and the kcat ([21]; phosphate buffer pH 6.4, 25 °C) was 963 ± 117 s⁻¹. For the same compound, the Km ([21]; read-out: KM^app, phosphate buffer pH 6.4, 25 °C) was 700 ± 172 µM.

Reference: paper PMC12274840 (The Journal of Biological Chemistry, 2025)
